Converted amounts (≈) assume the structure as drawn.

Test systems include Staphylococcus aureus; Escherichia coli B; Staphylococcus aureus 1; Bacillus subtilis 168; Pseudomonas aeruginosa; Streptococcus pyogenes; Salmonella typhimurium; Bacillus subtilis; Escherichia coli; Proteus vulgaris; Bacillus cereus AS1.126; Escherichia coli AS1.349; Proteus mirabilis.
Holding throughout (experiment): ≥ marks a high value that may be exact or a test limit, other limits are often not marked, values filed in µg/mL are converted to µM
For experiment [1], the system named is Micrococcus luteus CCM 144.
Experiment [2] relates to Pseudomonas aeruginosa ATCC 27853.
For experiment [3], the system named is Candida albicans F7-39/IDE99.
The test system of experiment [4] is Staphylococcus aureus ATCC 43300.
For experiment [5], the system named is Staphylococcus epidermidis.
In experiment [6] the test system is Staphylococcus aureus RF122.
Experiment [7] has as its system Staphylococcus aureus RN4220.
In experiment [8] the test system is Salmonella enterica subsp. enterica serovar Typhimurium LT2.
Experiment [9] has as its system Staphylococcus aureus NCTC 8325-4.
In experiment [10] the test system is Pseudomonas fluorescens NCIMB 9046.
Experiment [11] deals with Cronobacter sakazakii DPC 6440.
In experiment [12] the test system is Cronobacter sakazakii DSM 4485.
Experiment [13] concerns Klebsiella pneumoniae NCIMB 13218.
Experiment [14] has as its system Escherichia coli NCIMB 11843.
Experiment [15] relates to Staphylococcus aureus Newman.
The test system of experiment [16] is Cronobacter sakazakii ATCC BAA-894.
Experiment [17] relates to Staphylococcus aureus SA113.
The subject of experiment [18] is Cronobacter muytjensii ATCC 51329.
Experiment [19] concerns Lactococcus lactis AS1.1690.
The subject of experiment [20] is Pseudomonas aeruginosa CGMCC 1.860.
Experiment [21] concerns Enterococcus faecalis CGMCC 1.595.
Experiment [22] concerns Enterobacter cloacae CGMCC 1.58.
Experiment [23] concerns Klebsiella aerogenes CGMCC 1.876.
The test system of experiment [24] is Klebsiella pneumoniae subsp. pneumoniae CGMCC 1.176.
Experiment [25] deals with Staphylococcus aureus AS1.72.
In experiment [26] the test system is Enterococcus faecium CGMCC 1.2334.

In the case of `CC[C@H](C)[C@H](NC(=O)CN)C(=O)N[C@@H](CC(C)C)C(=O)N[C@@H](CO)C(=O)N[C@@H](CO)C(=O)N[C@@H](CC(C)C)C(=O)N[C@@H](CC(C)C)C(=O)N[C@@H](CCCCN)C(=O)N[C@@H](CCCCN)C(=O)N[C@@H](Cc1c[nH]c2ccccc12)C(=O)N[C@@H](CCCCN)C(=O)N[C@@H](CCCCN)C(=O)N[C@H](C(=O)N[C@H](C(=O)N[C@@H](C)C(=O)N[C@@H](CCCCN)C(N)=O)[C@@H](C)CC)[C@@H](C)CC` [GILSSLLKKWKKIIAK], the MIC (commonly the lowest concentration found to suppress growth) in the experiment with Staphylococcus aureus turned out to be 20 µM (≈ 36.5 µg/mL); with Escherichia coli B it was 7.5 µM (≈ 13.7 µg/mL); in [1], 3 µM (≈ 5.48 µg/mL); in the experiment on Staphylococcus aureus 1, 7.8 µM (≈ 14.2 µg/mL); in [2] it was 5 µM (≈ 9.13 µg/mL); in the experiment with Bacillus subtilis 168 it was 7 µM (≈ 12.8 µg/mL). The MIC in [3] turned out to be 11 µM (≈ 20.1 µg/mL); in the experiment with Pseudomonas aeruginosa, 7.1 µM (≈ 13 µg/mL); in experiment [4] it was 20 µM (≈ 36.5 µg/mL); in experiment [5], 2.7 µM (≈ 4.93 µg/mL).

On to `CC[C@H](C)[C@H](NC(=O)CN)C(=O)N[C@@H](CC(C)C)C(=O)N[C@@H](CO)C(=O)N[C@@H](CO)C(=O)N[C@@H](CC(C)C)C(=O)N[C@@H](Cc1c[nH]c2ccccc12)C(=O)N[C@@H](CCCCN)C(=O)N[C@@H](CCCCN)C(=O)N[C@@H](CC(C)C)C(=O)N[C@@H](CCCCN)C(=O)N[C@@H](CCCCN)C(=O)N[C@H](C(=O)N[C@H](C(=O)N[C@@H](C)C(=O)N[C@@H](CCCCN)C(N)=O)[C@@H](C)CC)[C@@H](C)CC` [GILSSLWKKLKKIIAK], for which the MIC in the experiment on Staphylococcus aureus is 5 µM (≈ 9.13 µg/mL); against Escherichia coli B it was 3.4 µM (≈ 6.21 µg/mL); in experiment [1] it was 3 µM (≈ 5.48 µg/mL); against Staphylococcus aureus 1, 2 µM (≈ 3.65 µg/mL); in experiment [2], 5.3 µM (≈ 9.67 µg/mL); against Bacillus subtilis 168, 7 µM (≈ 12.8 µg/mL). Moreover, the MIC in experiment [3] stood at 11 µM (≈ 20.1 µg/mL); with Pseudomonas aeruginosa, 8.8 µM (≈ 16.1 µg/mL); in [4], 5.3 µM (≈ 9.67 µg/mL); in experiment [5], 2 µM (≈ 3.65 µg/mL).

As to `CC[C@H](C)[C@H](N)C(=O)N[C@@H](CCCCN)C(=O)N[C@@H](Cc1cnc[nH]1)C(=O)N[C@@H](CCC(N)=O)C(=O)NCC(=O)N[C@@H](CC(C)C)C(=O)N1CCC[C@H]1C(=O)N[C@@H](CCC(N)=O)C(=O)N[C@@H](CCC(=O)O)C(=O)N[C@@H](CC(=O)O)C(=O)O` [IKHQGLPQED], the MIC in experiment [6] is not below 1250 µM; in [7] it was not below 1250 µM; in experiment [8], not below 2500 µM; in experiment [9], not below 1250 µM; in [10], not below 1250 µM; in [11], not below 625 µM. For the same compound, the MIC in [12] was not below 625 µM; in [13], not below 1250 µM; in [14], not below 1250 µM; in experiment [15], not below 1250 µM; in [16], not below 625 µM; in experiment [17], not below 625 µM. The MIC in [18] is not below 2500 µM.

On to `CC(C)C[C@H](NC(=O)[C@H](CCCN=C(N)N)NC(=O)[C@@H]1CCCN1C(=O)[C@H](Cc1cnc[nH]1)NC(=O)[C@@H]1CCCN1C(=O)[C@@H]1CCCN1C(=O)[C@@H](N)CCCN=C(N)N)C(=O)O` [RPPHPRL], for which the MIC against Streptococcus pyogenes is not below 64 µM; in the experiment on Salmonella typhimurium it was not below 64 µM; with Bacillus subtilis, not below 64 µM; against Escherichia coli it was 64 µM (≈ 55.8 µg/mL); in the experiment with Proteus vulgaris it was not below 64 µM; against Pseudomonas aeruginosa, 64 µM (≈ 55.8 µg/mL). Besides, the MIC in experiment [5] is not below 64 µM.

Turning to `CC[C@H](C)[C@H](NC(=O)[C@H](Cc1ccc(O)cc1)NC(=O)[C@@H](NC(=O)[C@@H]1CCCN1C(=O)[C@@H](N)CCCN=C(N)N)C(C)C)C(=O)N1CCC[C@H]1C(=O)N[C@@H](CCC(N)=O)C(=O)N1CCC[C@H]1C(=O)N[C@@H](CCCN=C(N)N)C(=O)N1CCC[C@H]1C(=O)N1CCC[C@H]1C(=O)N[C@@H](Cc1cnc[nH]1)C(=O)N1CCC[C@H]1C(=O)N[C@@H](CCCN=C(N)N)C(=O)N[C@@H](CC(C)C)C(=O)O` [RPVYIPQPRPPHPRL], the MIC in the experiment with Streptococcus pyogenes is not below 64 µM; with Salmonella typhimurium, 0.5 µM (≈ 0.912 µg/mL); in the experiment on Bacillus subtilis, not below 64 µM; with Escherichia coli it was 16 µM (≈ 29.2 µg/mL); with Proteus vulgaris it was not below 64 µM; in the experiment with Pseudomonas aeruginosa, 64 µM (≈ 117 µg/mL). For the same compound, the MIC in experiment [5] was not below 64 µM.

For the compound `CC(C)C[C@H](NC(=O)[C@@H](N)C(C)C)C(=O)N[C@@H](CC(N)=O)C(=O)N[C@@H](CCC(=O)O)C(=O)N[C@@H](CC(N)=O)C(=O)N[C@@H](C)C(=O)N[C@@H](C)C(=O)N[C@@H](CCCN=C(N)N)C(=O)O` [VLNENAAR], the minimum inhibitory concentration (MIC) was not below 1250 µM in experiment [6]; not below 1250 µM in [7]; not below 2500 µM in experiment [8]; not below 625 µM in experiment [9]; not below 1250 µM in experiment [10]; 32 µM (≈ 28.4 µg/mL) in experiment [2]. Also, the MIC in experiment [11] was not below 1250 µM; in [12], not below 625 µM; in experiment [13], not below 2500 µM; in experiment [14] it was not below 2500 µM; in experiment [15], not below 1250 µM; in experiment [16] it was not below 1250 µM. In addition, the MIC in experiment [17] and in experiment [18] was not below 1250 µM throughout.

On to `NC(N)=NCCC[C@H](NC(=O)[C@H](CCCN=C(N)N)NC(=O)[C@H](Cc1c[nH]c2ccccc12)NC(=O)[C@H](Cc1ccccc1)NC(=O)[C@H](CCCN=C(N)N)NC(=O)[C@H](CCCN=C(N)N)NC(=O)[C@@H](N)Cc1c[nH]c2ccccc12)C(=O)O` [WRRFWRR], for which the MIC in the experiment on Bacillus cereus AS1.126 is 1.56 µM (≈ 1.81 µg/mL); in experiment [19] it was 12.5 µM (≈ 14.5 µg/mL); in experiment [20], 12.5 µM (≈ 14.5 µg/mL); in the experiment with Escherichia coli AS1.349, 25 µM (≈ 29.1 µg/mL); in experiment [21], 25 µM (≈ 29.1 µg/mL); in experiment [22] it was not below 100 µM. Moreover, the MIC is not below 100 µM in experiment [23], not below 100 µM in [24], not below 50 µM in [25] and 25 µM (≈ 29.1 µg/mL) in [26].

Consider `NC(N)=NCCC[C@H](NC(=O)[C@H](CCCN=C(N)N)NC(=O)[C@H](CCCN=C(N)N)NC(=O)[C@H](CCCN=C(N)N)NC(=O)[C@H](CCCN=C(N)N)NC(=O)[C@H](CCCN=C(N)N)NC(=O)[C@H](CCCN=C(N)N)NC(=O)[C@H](CCCN=C(N)N)NC(=O)[C@H](Cc1c[nH]c2ccccc12)NC(=O)[C@H](Cc1c[nH]c2ccccc12)NC(=O)[C@H](Cc1c[nH]c2ccccc12)NC(=O)[C@@H](N)Cc1c[nH]c2ccccc12)C(=O)O` [WWWWRRRRRRRR], for which the MIC was 31.8 µM (≈ 64 µg/mL) in the experiment with Proteus mirabilis, 4.47 µM (≈ 9 µg/mL) in the experiment on Staphylococcus aureus, 0.124 µM (≈ 0.25 µg/mL) in the experiment with Streptococcus pyogenes and more than 31.8 µM with Pseudomonas aeruginosa.

For the origin of these results see DBAASP.
